Test results published in patent US20240116985A1, “STAPLED PEPTIDES AND METHODS THEREOF” (priority 2020, published 2024).
In brackets after ≈: the same amount, converted by molar mass. Where two headings read alike, the source gives them in different places. Starred links: 1 amine or outer side, 2 acyl side, 3 side chain; linkers in the order of their positions; H or OH if unused. Non-standard residues stand in square brackets, D forms with d. Residues, ends and D or L forms follow the SMILES beside them. X1 = C=CCOC(=O)N1CC[C@@](N[*:1])(C(=O)[*:2])C1; R8 = C=CCCCCCC[C@@](C)(N)C(=O)O

Legend:
CHI Log D procedure = assay type: physicochemical; settings: for chromatographic logD / logD: pH 7.4, CHI Log D; for CHI Log D: pH 7.4
Solubility in PBS = assay type: physicochemical
In short: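 The PBS solution was ultracentrifuged and the supernatant analyzed by HPLC. Its peak area was divided by that of a 50 μM peptide DMSO reference injection and multiplied by 50 uM to give solubility.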

Structure (SMILES)	Solubility (Solubility in PBS) [µM]	logD (CHI Log D procedure)	Solubility (Solubility in PBS; Solubility (uM)) [µM]	further results
C=CCCCCCC[C@@](C)(NC(=O)[C@H](C)NC(=O)[C@H](CC(=O)O)NC(=O)[C@H](Cc1ccccc1)NC(C)=O)C(=O)N[C@@H](CC(=O)O)C(=O)N[C@@H](CC(=O)O)C(=O)N[C@@H](C)C(=O)N[C@@H](C)C(=O)N[C@@H](Cc1ccccc1)C(=O)N[C@@H](CCC(N)=O)C(=O)N[C@@]1(C(=O)N[C@@H](Cc2ccccc2)C(=O)N[C@@H](Cc2c[nH]c3ccccc23)C(=O)N[C@@H](CCC(N)=O)C(N)=O)CCN(C(=O)OCC=C)C1 [I-579, Ac-Phe-Asp-Ala-R8-Asp-Asp-Ala-Ala-Phe-Gln-PyrS-Phe-Trp-Gln-NH2] (Ac-FDA[R8]DDAAFQ[X1]FWQ-NH2)				chromatographic logD (CHI Log D procedure): 1.51; solubility at 15 min (Solubility in PBS; Solubility (uM)): 45 µM (≈ 84.6 µg/mL)
CC[C@H](C)[C@@H]1NC(=O)[C@H](CC(=O)O)NC(=O)[C@]2(CC=CCCCC3(CCCC=CCCCCCC[C@@](C)(C(=O)N[C@@H](Cc4ccccc4)C(=O)N[C@@H](Cc4ccccc4)C(=O)N[C@@H](CCC(N)=O)C(N)=O)NC(=O)[C@H](CCC(N)=O)NC(=O)[C@H](Cc4csc5ccccc45)NC(=O)[C@H](C)NC(=O)[C@H](C)NC(=O)[C@H](CCC(=O)O)NC(=O)[C@H](CC(=O)O)NC3=O)NC1=O)CCCN2C(C)=O (stereo partly drawn) [I-585, Ac-PL3-Asp-Ile-B5-Asp-Glu-Ala-Ala-BztA-Gln-S8-Phe-Phe-Gln-NH2]	50 (≈ 94.2 µg/mL)			CHI Log D (CHI Log D procedure): 2.364
CC[C@H](C)[C@@H]1NC(=O)[C@H](CC(=O)O)NC(=O)[C@]2(CC=CCCCC3(CCCC=CCCCCCC[C@@](C)(C(=O)N[C@@H](Cc4ccccc4)C(=O)N[C@@H](Cc4ccccc4)C(=O)N[C@@H](CCC(N)=O)C(N)=O)NC(=O)[C@H](CCC(N)=O)NC(=O)[C@H](Cc4csc5ccccc45)NC(=O)[C@H](C)NC(=O)[C@H](C)NC(=O)[C@H](CCC(=O)O)NC(=O)[C@H](CC(=O)O)NC3=O)NC1=O)CCCN2C(C)=O (stereo partly drawn) [I-586, Ac-PL3-Asp-Ile-B5-Asp-Glu-Ala-Ala-BztA-Gln-S8-Phe-Phe-Gln-NH2]	50 (≈ 94.2 µg/mL)			CHI Log D (CHI Log D procedure): 2.39
CC[C@H](C)[C@@H]1NC(=O)[C@H](CC(=O)O)NC(=O)[C@]2(CC=CCCCC3(CCCC=CCCCCCC[C@@](C)(C(=O)N[C@@H](CC(=O)O)C(=O)N[C@@H](Cc4csc5ccccc45)C(=O)N[C@@H](CCC(N)=O)C(N)=O)NC(=O)[C@H](CCC(N)=O)NC(=O)[C@H](Cc4ccccc4)NC(=O)[C@H](C)NC(=O)[C@H](C)NC(=O)[C@H](CCC(=O)O)NC(=O)[C@H](Cc4ccccc4)NC3=O)NC1=O)CCCN2C(C)=O (stereo partly drawn) [I-587, Ac-PL3-Asp-Ile-B5-Phe-Glu-Ala-Ala-Phe-Gln-S8-Asp-BztA-Gln-NH2]	50 (≈ 94.2 µg/mL)			chromatographic logD (CHI Log D procedure): 2.15
CC[C@H](C)[C@@H]1NC(=O)[C@H](Cc2ccccc2)NC(=O)[C@]2(CC=CCCCC3(CCCC=CCCCCCC[C@@](C)(C(=O)N[C@@H](Cc4ccccc4)C(=O)N[C@@H](Cc4csc5ccccc45)C(=O)N[C@@H](CCC(N)=O)C(N)=O)NC(=O)[C@H](CCC(N)=O)NC(=O)[C@H](CC(=O)O)NC(=O)[C@H](C)NC(=O)[C@H](C)NC(=O)[C@H](CCC(=O)O)NC(=O)[C@H](CC(=O)O)NC3=O)NC1=O)CCCN2C(C)=O (stereo partly drawn) [I-588, Ac-PL3-Phe-Ile-B5-Asp-Glu-Ala-Ala-Asp-Gln-S8-Phe-BztA-Gln-NH2]				chromatographic logD (CHI Log D procedure): 2.87; solubility at 15 min (Solubility in PBS; Solubility (uM)): 49 µM (≈ 92.3 µg/mL)
CC(=O)N1CCC[C@]12CC=CCCCC1(CCCC=CCCCCCC[C@@](C)(C(=O)N[C@@H](Cc3ccccc3)C(=O)N[C@@H](Cc3csc4ccccc34)C(N)=O)NC(=O)[C@H](CC(N)=O)NC(=O)[C@H](Cc3ccccc3)NC(=O)[C@H](C)NC(=O)[C@H](C)NC(=O)[C@H](CCC(=O)O)NC(=O)[C@H](CC(=O)O)NC1=O)NC(=O)[C@H](CC1CCCCC1)NC(=O)[C@H](CC(=O)O)NC2=O (stereo partly drawn) [I-626, Ac-PL3-Asp-Cha-B5-Asp-Glu-Ala-Ala-Phe-Asn-S8-Phe-BztA-NH2]	50 (≈ 89.1 µg/mL)			CHI Log D (CHI Log D procedure): 2.048
CC[C@H](C)[C@@H]1NC(=O)[C@H](CC(=O)O)NC(=O)[C@]2(CC=CCCCC3(CCCC=CCCCCCC[C@@](C)(C(=O)N[C@@H](Cc4ccccc4)C(=O)N[C@@H](Cc4csc5ccccc45)C(=O)N4CCC[C@H]4C(N)=O)NC(=O)[C@H](CCC(N)=O)NC(=O)[C@H](Cc4ccccc4)NC(=O)[C@H](C)NC(=O)[C@H](C)NC(=O)[C@H](CCC(=O)O)NC(=O)[C@H](CC(=O)O)NC3=O)NC1=O)CCCN2C(C)=O (stereo partly drawn) [I-637, Ac-PL3-Asp-Ile-B5-Asp-Glu-Ala-Ala-Phe-Gln-S8-Phe-BztA-Pro-NH2]	50 (≈ 92.6 µg/mL)			CHI Log D (CHI Log D procedure): 2.554
CC(=O)N1CCC[C@]12CC=CCCCC1(CCCC=CCCCOC(=O)N3CC[C@@](C(=O)N[C@@H](Cc4ccsc4)C(=O)N[C@@H](Cc4csc5ccccc45)C(=O)N[C@@H](Cc4c[nH]cn4)C(N)=O)(C3)NC(=O)[C@H](CC(N)=O)NC(=O)[C@H](Cc3ccccc3)NC(=O)[C@H](C)NC(=O)[C@H](CCCCNC(=O)Cn3cc(CNC(=O)c4ccc5c(c4)C4(OC5=O)c5ccc(O)cc5Oc5cc(O)ccc54)nn3)NC(=O)[C@H](CC(=O)O)NC(=O)[C@H](CC(=O)O)NC1=O)NC(=O)[C@H](CC(C)(C)C)NC(=O)[C@H](CC(=O)O)NC2=O (stereo partly drawn) [I-865, Ac-PL3-Asp-Npg-B5-Asp-Asp-[FAM6Ppg][1TriAc]Lys-Ala-Phe-Asn-PyrS2-3Thi-BztA-His-NH2]		1.62	38 (≈ 94.3 µg/mL)	
CC(=O)N1CCC[C@]12CC=CCCCC1(CCCC=CCCCOC(=O)N3CC[C@@](C(=O)N[C@@H](Cc4ccsc4)C(=O)N[C@@H](Cc4csc5ccccc45)C(=O)N[C@@H](CCC(N)=O)C(N)=O)(C3)NC(=O)[C@H](CC(N)=O)NC(=O)[C@H](Cc3ccccc3)NC(=O)[C@H](C)NC(=O)[C@H](CCCCNC(=O)c3ccc(-n4cc(CNC(=O)c5ccc6c(c5)C5(OC6=O)c6ccc(O)cc6Oc6cc(O)ccc65)nn4)cc3)NC(=O)[C@H](CC(C)C)NC(=O)[C@H](CC(=O)O)NC1=O)NC(=O)[C@H](CC(C)(C)C)NC(=O)[C@H](CC(=O)O)NC2=O (stereo partly drawn) [I-867, Ac-PL3-Asp-Npg-B5-Asp-Leu-[FAM6Ppg][p1TB]Lys-Ala-Phe-Asn-PyrS2-3Thi-BztA-Gln-NH2]		1.8	13 (≈ 32.9 µg/mL)	
CC(=O)N1CCC[C@]12CC=CCCCC1(CCCC=CCCCOC(=O)N3CC[C@@](C(=O)N[C@@H](Cc4ccsc4)C(=O)N[C@@H](Cc4csc5ccccc45)C(=O)N[C@@H](CCC(N)=O)C(N)=O)(C3)NC(=O)[C@H](CC(C)C)NC(=O)[C@H](Cc3ccccc3)NC(=O)[C@H](C)NC(=O)[C@H](CCCCNC(=O)c3ccc(-n4cc(CNC(=O)c5ccc6c(c5)C5(OC6=O)c6ccc(O)cc6Oc6cc(O)ccc65)nn4)cc3)NC(=O)[C@H](CC(C)C)NC(=O)[C@H](CC(=O)O)NC1=O)NC(=O)[C@H](CC(C)(C)C)NC(=O)[C@H](CC(=O)O)NC2=O (stereo partly drawn) [I-868, Ac-PL3-Asp-Npg-B5-Asp-Leu-[FAM6Ppg][p1TB]Lys-Ala-Phe-Leu-PyrS2-3Thi-BztA-Gln-NH2]	10 (≈ 25.3 µg/mL)	1.88		
CC(=O)N1CCC[C@]12CC=CCCCC1(CCCC=CCCCOC(=O)N3CC[C@@](C(=O)N[C@@H](Cc4ccsc4)C(=O)N[C@@H](Cc4csc5ccccc45)C(=O)N[C@@H](CCC(N)=O)C(N)=O)(C3)NC(=O)[C@H](Cc3ccccc3)NC(=O)[C@H](Cc3ccccc3)NC(=O)[C@H](C)NC(=O)[C@H](CCCCNC(=O)c3ccc(-n4cc(CNC(=O)c5ccc6c(c5)C5(OC6=O)c6ccc(O)cc6Oc6cc(O)ccc65)nn4)cc3)NC(=O)[C@H](CC(C)C)NC(=O)[C@H](CC(=O)O)NC1=O)NC(=O)[C@H](CC(C)(C)C)NC(=O)[C@H](CC(=O)O)NC2=O (stereo partly drawn) [I-869, Ac-PL3-Asp-Npg-B5-Asp-Leu-[FAM6Ppg][p1TB]Lys-Ala-Phe-Phe-PyrS2-3Thi-BztA-Gln-NH2]	10 (≈ 25.6 µg/mL)	1.91		
CC(=O)N1CCC[C@]12CC=CCCCC1(CCCC=CCCCOC(=O)N3CC[C@@](C(=O)N[C@@H](Cc4ccsc4)C(=O)N[C@@H](Cc4csc5ccccc45)C(=O)N[C@@H](CCC(N)=O)C(=O)N[C@@H](C)C(=O)N[C@@H](C)C(=O)N[C@@H](C)C(N)=O)(C3)NC(=O)[C@H](CC(N)=O)NC(=O)[C@H](Cc3ccccc3)NC(=O)[C@H](C)NC(=O)[C@H](C)NC(=O)[C@H](CC(=O)O)NC(=O)[C@H](CC(=O)O)NC1=O)NC(=O)[C@H](CC(C)(C)C)NC(=O)[C@H](CC(=O)O)NC2=O (stereo partly drawn) [I-870, Ac-PL3-Asp-Npg-B5-Asp-Asp-Ala-Ala-Phe-Asn-PyrS2-3Thi-BztA-Gln-Ala-Ala]		1.99	47 (≈ 100 µg/mL)	
CC(=O)N1CCC[C@]12CC=CCCCC1(CCCC=CCCCOC(=O)N3CC[C@@](C(=O)N[C@@H](Cc4ccsc4)C(=O)N[C@@H](Cc4csc5ccccc45)C(=O)N[C@@H](CCC(N)=O)C(=O)N[C@H](C)C(=O)N[C@@H](C)C(=O)N[C@@H](C)C(N)=O)(C3)NC(=O)[C@H](CC(N)=O)NC(=O)[C@H](Cc3ccccc3)NC(=O)[C@H](C)NC(=O)[C@H](C)NC(=O)[C@H](CC(=O)O)NC(=O)[C@H](CC(=O)O)NC1=O)NC(=O)[C@H](CC(C)(C)C)NC(=O)[C@H](CC(=O)O)NC2=O (stereo partly drawn) [I-871, Ac-PL3-Asp-Npg-B5-Asp-Asp-Ala-Ala-Phe-Asn-PyrS2-3Thi-BztA-Gln-dAla-Ala]		1.92	45 (≈ 95.9 µg/mL)	
CC(=O)N1CCC[C@]12CC=CCCCC1(CCCC=CCCCOC(=O)N3CC[C@@](C(=O)N[C@@H](Cc4ccsc4)C(=O)N[C@@H](Cc4csc5ccccc45)C(=O)N[C@@H](CCC(N)=O)C(=O)N[C@H](C)C(=O)N[C@H](C)C(=O)N[C@H](C)C(N)=O)(C3)NC(=O)[C@H](CC(N)=O)NC(=O)[C@H](Cc3ccccc3)NC(=O)[C@H](C)NC(=O)[C@H](C)NC(=O)[C@H](CC(=O)O)NC(=O)[C@H](CC(=O)O)NC1=O)NC(=O)[C@H](CC(C)(C)C)NC(=O)[C@H](CC(=O)O)NC2=O (stereo partly drawn) [I-872, Ac-PL3-Asp-Npg-B5-Asp-Asp-Ala-Ala-Phe-Asn-PyrS2-3Thi-BztA-Gln-dAla-dAla]	50 (≈ 107 µg/mL)	1.89		
CC(=O)N1CCC[C@]12CC=CCCCC1(CCCC=CCCCOC(=O)N3CC[C@@](C(=O)N[C@@H](Cc4ccsc4)C(=O)N[C@@H](Cc4csc5ccccc45)C(=O)N[C@@H](CCC(N)=O)C(=O)N[C@@H](C)C(=O)N[C@@H](C)C(=O)N[C@H](C)C(N)=O)(C3)NC(=O)[C@H](CC(N)=O)NC(=O)[C@H](Cc3ccccc3)NC(=O)[C@H](C)NC(=O)[C@H](C)NC(=O)[C@H](CC(=O)O)NC(=O)[C@H](CC(=O)O)NC1=O)NC(=O)[C@H](CC(C)(C)C)NC(=O)[C@H](CC(=O)O)NC2=O (stereo partly drawn) [I-873, Ac-PL3-Asp-Npg-B5-Asp-Asp-Ala-Ala-Phe-Asn-PyrS2-3Thi-BztA-Gln-Ala-Ala]		2	47 (≈ 100 µg/mL)	
